In patent US11427869B2, “T cell balance gene expression, compositions of matters and methods of use thereof” (THE BROAD INSTITUTE, INC., priority 2015, dated 2022):

Tests used:
Th17 cells [1] = experiment: Flow cytometry and intracellular cytokine staining of T cells; assay type: cell-based, mouse; settings: WT Th17 cells differentiated with TGF-β1+IL-6 and expanded using IL-23 with fatty acid
Method: WT, CD5L−/− and Rorγt−/− Th17 cells were differentiated with TGF-1+IL-6 for 96h. […] Three independent experiments were performed. […] (FIG. 18E) Naïve WT T cells were activated without polarizing cytokines (Th0) and infected with retrovirus expressing Rorγt in the presence of control-RV or CD5L-RV with or without FF-MAS (5 uM) as a source of Rorγt ligand. Each dot represents an independent infection. (FIG. 18F) WT or CD5L−/− naïve cells were differentiated with TGF-β1+IL-6. At 48h, cells were replated in fresh media with either control or FF-MAS (5 uM) as a source of Rorγt ligand. Cells were harvested for FACS analysis 72h later.
Flow cytometry and intracellular cytokine staining. Sorted naïve T cells were stimulated with phorbol 12-myristate 13-acetate (PMA) (50 ng/ml, Sigma-aldrich), ionomycin (1 μg/ml, Sigma-aldrich) and a protein transport inhibitor containing monensin (Golgistop) (BD Biosciences) for 4 h before detection by staining with antibodies.

WT Th17 cells = experiment: Nanostring nCounter Th17 codeset (312 genes), SFA- or control-treated WT Th17 cells; assay type: cell-based, mouse; settings: WT Th17 cells + SFA
Source text: Applicants studied the contribution of lipid saturation to Th17 cell pathogenicity. […] Applicants analyzed the expression of a 312 gene signature of Th17 cell differentiation and function (Yosef et al., 2013) in SFA- or control-treated WT Th17 cells and in PUFA- or control-treated CD5L−/− Th17 cells differentiated with TGF-81+IL-6.
T cell differentiation culture. Naïve CD4+CD44−CD62L+CD25− T cells or Effector memory CD4+CD44+CD62L− were sorted using BD FACSAria sorter and activated with plate-bound anti-CD3 and anti-CD28 antibodies (both at 2 μg/ml) in the presence of cytokines at a concentration of 2.5×10^5 cells/ml. For Th17 differentiation: 2 ng/ml of rhTGFβ1, 2 ng/ml of rhTGFβ3, 25 ng/ml rmIL-6, 20 ng/ml rmIL-18 (all from Miltenyi Biotec) and 20 ng/ml rmIL-23 (R & D systems) were used at various combinations as specified in figures. For Th1 differentiation, 20 ng/ml rmIL-12 (R & D systems); for Th2 differentiation 20 ng/ml rmIL-4 (Miltenyi Biotec); for iTreg differentiation, 2.5 ng/ml of rhTGFβ1 were used (Miltenyi Biotec). For differentiation experiments, cells were harvested at 48 hours. For restimulation experiments, cells were differentiated for 48 hours and resuspended in fresh media with no additional cytokines for 48-72 hours. Cells were re-stimulated with PMA/ionomycin for four hours before analysis for cytokines by intracellular cytokine staining. For experiments with exogenous fatty acid, fatty acids were purchased and resuspended first with serum-free media containing BSA prior being added to culture.
Nanostring nCounter. Nanostring nCounter platform (NanoString Technologies) is used to measure the number of RNA transcripts in RNA samples (FIG. 16I, FIG. 18D). A codeset containing 312 signature genes of Th17 cell differentiation and function as well as 4 additional house-keeping genes were custom-made (Yosef et al., 2013) and used in these experiments. Experimental procedures as detailed by the manufacturer is strictly followed.

Th17 cells [2] = experiment: qPCR of gene expression (cyp51, sc4mol, pathogenicity signature) in Th17 cells with exogenous fatty acid; assay type: cell-based, mouse
Rorγt = biological target: T1, Rorγt (Mus musculus, UniProt P51450); experiment: Dual luciferase reporter assay of Rorγt transcriptional activity in EL4 cells; assay type: cell-based; settings: EL4 cells, CD5L-RV 100 ng; ligand 5, 0.5 or 0.05 uM
T1 construct: expressed in transfected cells; host or cells: EL4 cells stably transfected with Rorγt vector
T1 sequence (P51450 1-495 isoform P51450-2): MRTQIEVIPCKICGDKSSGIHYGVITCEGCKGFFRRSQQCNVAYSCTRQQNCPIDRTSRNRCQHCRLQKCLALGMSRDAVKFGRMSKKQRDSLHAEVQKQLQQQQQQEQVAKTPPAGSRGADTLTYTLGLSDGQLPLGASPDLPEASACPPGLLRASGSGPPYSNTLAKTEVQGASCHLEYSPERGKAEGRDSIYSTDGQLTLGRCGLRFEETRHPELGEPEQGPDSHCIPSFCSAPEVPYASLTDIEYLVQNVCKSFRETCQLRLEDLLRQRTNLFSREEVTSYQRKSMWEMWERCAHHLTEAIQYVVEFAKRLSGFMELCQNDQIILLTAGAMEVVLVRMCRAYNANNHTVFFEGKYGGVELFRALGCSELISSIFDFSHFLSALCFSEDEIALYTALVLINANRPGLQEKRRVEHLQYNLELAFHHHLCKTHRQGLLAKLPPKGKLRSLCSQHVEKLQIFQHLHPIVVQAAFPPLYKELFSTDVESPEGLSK
Method: Cells and supernatant were harvested at 96 hours and subjected to MS/LC. Three independent mouse experiments were performed. […] All ChIP and luciferase assay are representative of at least 3 independent experiments.
Three independent experiments were performed.

[3] = Th17 cells differentiated with TGF-β1+IL-6

## CCCCCCCCCCCCCCCC(=O)O [SFA, palmitic acid]
Th17 cells [1]
  IL-17 and IL-23R expression: only slightly increased
WT Th17 cells
  ATF2 expression (Nanostring), normalized to WT: 1.18
  Abcg2 expression (Nanostring), normalized to WT: 0.77
  Acvr2a expression (Nanostring), normalized to WT: 0.66
  Ahr expression (Nanostring), normalized to WT: 0.83
  Arl5a expression (Nanostring), normalized to WT: 0.93
  Atf4 expression (Nanostring), normalized to WT: 1.11
  BC021614 expression (Nanostring), normalized to WT: 0.96
  Bcl2l11 expression (Nanostring), normalized to WT: 0.82
  Bcl3 expression (Nanostring), normalized to WT: 0.85
  Bcl11b expression (Nanostring), normalized to WT: 0.82
  Bhlhe40 expression (Nanostring), normalized to WT: 1.22
  Casp3 expression (Nanostring), normalized to WT: 1.21
  Casp4 expression (Nanostring), normalized to WT: 0.95
  Ccl1 expression (Nanostring), normalized to WT: 0.58
  Ccl20 expression (Nanostring), normalized to WT: 0.31
  Ccr4 expression (Nanostring), normalized to WT: 0.61
  Ccr8 expression (Nanostring), normalized to WT: 0.74
  Cd9 expression (Nanostring), normalized to WT: 0.84
  Cd70 expression (Nanostring), normalized to WT: 0.89
  Cd83 expression (Nanostring), normalized to WT: 1.23
  Cd86 expression (Nanostring), normalized to WT: 0.99
  Cd247 expression (Nanostring), normalized to WT: 0.81
  Clcf1 expression (Nanostring), normalized to WT: 0.74
  Csf2 expression (Nanostring), normalized to WT: 0.97
  Ctla4 expression (Nanostring), normalized to WT: 0.81
  Cxcl10 expression (Nanostring), normalized to WT: 3.83
  Cxcr3 expression (Nanostring), normalized to WT: 0.48
  Cxcr4 expression (Nanostring), normalized to WT: 1.00
  Cxcr5 expression (Nanostring), normalized to WT: 1.17
  EBF1 expression (Nanostring), normalized to WT: 0.51
  Egr2 expression (Nanostring), normalized to WT: 1.53
  Elk3 expression (Nanostring), normalized to WT: 0.58
  Ercc5 expression (Nanostring), normalized to WT: 0.90
  Etv6 expression (Nanostring), normalized to WT: 0.94
  Faim3 expression (Nanostring), normalized to WT: 0.61
  Fli1 expression (Nanostring), normalized to WT: 0.84
  Flna expression (Nanostring), normalized to WT: 0.65
  Foxo1 expression (Nanostring), normalized to WT: 0.79
  Foxp1 expression (Nanostring), normalized to WT: 0.77
  Foxp3 expression (Nanostring), normalized to WT: 0.71
  Frmd4b expression (Nanostring), normalized to WT: 1.05
  Fxd7 expression (Nanostring), normalized to WT: 1.07
  Gap43 expression (Nanostring), normalized to WT: 1.30
  Gem expression (Nanostring), normalized to WT: 1.00
  Gimap5 expression (Nanostring), normalized to WT: 1.05
  Gja1 expression (Nanostring), normalized to WT: 0.94
  Gmfg expression (Nanostring), normalized to WT: 0.62
  Grn expression (Nanostring), normalized to WT: 0.78
  Gusb expression (Nanostring), normalized to WT: 1.02
  Hip1r expression (Nanostring), normalized to WT: 0.70
  IL-33 expression (Nanostring), normalized to WT: 1.33
  Ifih1 expression (Nanostring), normalized to WT: 0.87
  Ifng expression (Nanostring), normalized to WT: 0.55
  Ikzf3 expression (Nanostring), normalized to WT: 0.82
  Il1r1 expression (Nanostring), normalized to WT: 0.61
  Il2ra expression (Nanostring), normalized to WT: 0.71
  Il3 expression (Nanostring), normalized to WT: 2.11
  Il4ra expression (Nanostring), normalized to WT: 0.75
  Il6st expression (Nanostring), normalized to WT: 0.87
  Il7r expression (Nanostring), normalized to WT: 0.85
  Il10 expression (Nanostring), normalized to WT: 0.12
  Il10ra expression (Nanostring), normalized to WT: 0.71
  Il12rb1 expression (Nanostring), normalized to WT: 0.39
  Il12rb2 expression (Nanostring), normalized to WT: 0.88
  Il17a expression (Nanostring), normalized to WT: 0.96
  Il17f expression (Nanostring), normalized to WT: 0.90
  Il21 expression (Nanostring), normalized to WT: 1.64
  Il23r expression (Nanostring), normalized to WT: 1.12
  Il27ra expression (Nanostring), normalized to WT: 0.70
  Inhba expression (Nanostring), normalized to WT: 0.60
  Irf4 expression (Nanostring), normalized to WT: 0.68
  Irf7 expression (Nanostring), normalized to WT: 0.54
  Irf8 expression (Nanostring), normalized to WT: 0.99
  Itga3 expression (Nanostring), normalized to WT: 0.50
  Jak3 expression (Nanostring), normalized to WT: 0.91
  Jun expression (Nanostring), normalized to WT: 1.11
  Kat2b expression (Nanostring), normalized to WT: 0.69
  Klf9 expression (Nanostring), normalized to WT: 0.68
  Klf10 expression (Nanostring), normalized to WT: 0.91
  Klrd1 expression (Nanostring), normalized to WT: 0.92
  Lad1 expression (Nanostring), normalized to WT: 0.91
  Lgals3bp expression (Nanostring), normalized to WT: 0.58
  Litaf expression (Nanostring), normalized to WT: 1.48
  Lpxn expression (Nanostring), normalized to WT: 0.85
  Maf expression (Nanostring), normalized to WT: 0.79
  Maff expression (Nanostring), normalized to WT: 0.99
  Map3k5 expression (Nanostring), normalized to WT: 0.80
  Mbnl3 expression (Nanostring), normalized to WT: 0.71
  Mina expression (Nanostring), normalized to WT: 0.72
  Mt1 expression (Nanostring), normalized to WT: 1.56
  Mt2 expression (Nanostring), normalized to WT: 1.33
  Nfkbie expression (Nanostring), normalized to WT: 0.69
  Nkg7 expression (Nanostring), normalized to WT: 0.62
  Notch2 expression (Nanostring), normalized to WT: 0.78
  Oas2 expression (Nanostring), normalized to WT: 1.28
  Peli2 expression (Nanostring), normalized to WT: 0.88
  Plac8 expression (Nanostring), normalized to WT: 1.04
  Plagl1 expression (Nanostring), normalized to WT: 2.19
  Pmepa1 expression (Nanostring), normalized to WT: 0.74
  Pou2af1 expression (Nanostring), normalized to WT: 1.30
  Prkd3 expression (Nanostring), normalized to WT: 0.73
  Pstpip1 expression (Nanostring), normalized to WT: 1.16
  Rab33a expression (Nanostring), normalized to WT: 1.23
  Rasgrp1 expression (Nanostring), normalized to WT: 0.75
  Rel expression (Nanostring), normalized to WT: 1.20
  Rela expression (Nanostring), normalized to WT: 0.70
  Rfk expression (Nanostring), normalized to WT: 0.79
  Rorc expression (Nanostring), normalized to WT: 1.25
  Sap30 expression (Nanostring), normalized to WT: 1.23
  Sema7a expression (Nanostring), normalized to WT: 1.44
  Serpinb1a expression (Nanostring), normalized to WT: 0.56
  Ski expression (Nanostring), normalized to WT: 0.88
  Slc6a6 expression (Nanostring), normalized to WT: 0.79
  Smad3 expression (Nanostring), normalized to WT: 0.81
  Socs3 expression (Nanostring), normalized to WT: 0.78
  Spp1 expression (Nanostring), normalized to WT: 1.10
  Spry1 expression (Nanostring), normalized to WT: 1.57
  Stat4 expression (Nanostring), normalized to WT: 0.77
  Stat5b expression (Nanostring), normalized to WT: 0.82
  Stat6 expression (Nanostring), normalized to WT: 0.73
  Sult2b1 expression (Nanostring), normalized to WT: 0.38
  Tal2 expression (Nanostring), normalized to WT: 1.15
  Tcf4 expression (Nanostring), normalized to WT: 0.72
  Tgfb1 expression (Nanostring), normalized to WT: 0.83
  Tgfb3 expression (Nanostring), normalized to WT: 0.88
  Tgfbr3 expression (Nanostring), normalized to WT: 0.58
  Tgm2 expression (Nanostring), normalized to WT: 0.78
  Tmem229b expression (Nanostring), normalized to WT: 0.69
  Tnfrsf4 expression (Nanostring), normalized to WT: 1.28
  Tnip2 expression (Nanostring), normalized to WT: 0.90
  Trat1 expression (Nanostring), normalized to WT: 0.61
  Trim25 expression (Nanostring), normalized to WT: 0.89
  Trps1 expression (Nanostring), normalized to WT: 0.84
  Tsc22d3 expression (Nanostring), normalized to WT: 1.06
  Ubiad1 expression (Nanostring), normalized to WT: 0.94
  Vav3 expression (Nanostring), normalized to WT: 0.56
  Xrcc5 expression (Nanostring), normalized to WT: 0.93
  nrp1 expression (Nanostring), normalized to WT: 0.74
  pou2f1 expression (Nanostring), normalized to WT: 1.34
Th17 cells [2]; CD5L−/− Th17 cells (TGF-β1+IL-6), fatty acid 25 uM added at 48h, analyzed at 96h
  expression of cyp51 and sc4mol mRNA: modest effect
Th17 cells [2]; [3]
  Il22 expression (qPCR): increased
  effector molecule expression of the pathogenicity signature (Il10, Il23r, Ccl5, Csf2, Lag3; qPCR): reciprocally regulated

## CC(CO)CCC[C@@H](C)[C@H]1CC[C@H]2[C@@H]3[C@@H](O)C=C4C[C@@H](O)CC[C@]4(C)[C@H]3CC[C@]12C (stereo partly drawn) [7β, 27-dihydroxycholesterol]
Rorγt
  Il17 reporter transcription (luciferase): rescued the CD5L-driven suppression of Il17 reporter transcription
